Reference: patent publication US12384798B2, “ACC inhibitor and use thereof” (NANJING RUIJIE PHARMA CO., LTD., priority 2019, dated 2025)
Where two headings read alike, the source gives them in different places.

How the values were obtained:
HepG2 cells = test: [2-14C]-acetate incorporation assay in HepG2 cells; format: cell-based; details: for IC50: Homo sapiens, HepG2 cells, read-out: IC50 [2-14C]-acetate binding assay
Experimental: [2-^14C]-Acetate Incorporation Assay in HepG2 Cells
DMEM (GIBCO, catalog number: 11965-092) was used as a complete culture medium for HepG2 cells (ATCC, catalog number: HB-8064). 10% fetal bovein serum (FBS, GIBCO, catalog number: 10099-141), penicillin (100 units/mL) and streptomycin (100 μg/mL) (Pen/Strep, GIBCO, catalog number: 15140-122) were added to a DMEM culture medium.
HepG2 cells were cultured in a 37° C. incubator holding 5% carbon dioxide, and passaged every 2-3 days.
The HepG2 cells were spread on a 24-well plate (Corning, catalog number: 3524) at a density of 2×10^5 cells-well, 500 μL per well, and cultured in a 37° C. incubator holding 5% carbon dioxide. On the fourth day of culture, 50 μL of a compound diluted at a gradient of 1:3 was added, with the final concentration of DMSO of 0.5% (v/v); and the cells were cultured for 1 hour in the incubator. 1 μCi [2-^14C]-sodium acetate (Perkin Elmer, catalog number: NEC085H001MC) was added to each well, and culture was conducted for another 5 hours. The culture medium in each well was transferred to a 15 mL centrifugal tube (BD, catalog number: 352096); 0.5 mL of 0.1 M NaOH was added; the cells were blown and washed repeatedly, and then transferred to new centrifugal tubes. Then, 1 mL of ethanol and 0.17 mL of 50% KOH solution were added to each centrifugal tube, which was then treated in a water bath at 90° C. for 1 hour. Next, the mixture was cooled to room temperature; 5 mL of petroleum ether was added to each centrifugal tube, which was turned upside down several times for mixing; the resulting mixture was centrifuged for 5 minutes (Eppendorf, Model: 5702, 1000 rpm); and an upper organic phase was discarded. 1 mL of concentrated hydrochloric acid was added to each centrifugal tube and centrifuged for 5 minutes, and 4 mL of petroleum ether was transferred into a glass tube (18×180 mm). The sample in the glass tube was dried at 64° C., and then dissolved and resuspended by addition of 400 μL of spotting solution (chloroform:n-hexane=1:1). 50 μL of the dissolved sample was drawn by a pipette (BIOHIT, Model: Proline Plus), and spotted onto an Isoplate-96-microwell plate (Perkin Elmer, catalog number: 6005040), and 200 μL of ULTIMA GOLD scintillation solution (Perkin Elmer, catalog number: 77-16061) was added, standing for 5 minutes. Finally, MicroBeta (PerkinElmer, Model: 2450) was used to read scintillation signals.
A 4-parameter logistic model or sigmoidal dose-response model in XLFit 5.3.1.3 (2006-2011 I D Business Solutions Limited) was used to fit IC50: fit=(A+((B−A)/(1+((C/x)^D)))); where the x-axis represented the log of compound concentration, and the y-axis represented count per minute (CPM).

[1] = Pharmacokinetic evaluation of compounds in rats; format: in vivo; details: SD rats; for Kp / Vd / AUC(0-inf) / Cmax / Tmax / half-life / bioavailability: male, rat; for Kp: liver/plasma, liver collected 1 h, 3 h and 24 h after dosage, read-out: L/P liver-to-blood ratio; for Vd / AUC(0-inf) / Cmax / Tmax / half-life / bioavailability: plasma; for Vd: intravenous, 2 mg/kg, read-out: Vss; for bioavailability: read-out: F (%) bioavailability
From the text: This example was intended to investigate the pharmacokinetics of the compounds of the present invention and ND630 in SD rats under the conditions of intravenous (iv) and intragastric administration (po). Unless otherwise stated, the experimental reagents and instruments are all commercially available. ND630 was Gilead's acetyl CoA carboxylase (ACC) inhibitor, with a structural formula as follows: […]
Formulation of compound: by taking a physiological saline solution of 5% DMSO+5% Solutol HS 15+90% HP-β-CD (20% w/v) as a solvent, a compound with the final concentration of 0.4 mg/mL was formulated for intravenous administration and a compound with the final concentration of 1 mg/mL was formulated for orally intragastric administration.
Animal feeding and management: male SD rats aged 6-8 weeks and weighing between 180-250 g were selected and raised in transparent resin plastic rate cages. Before administration, the rats were fasted overnight for at least 16 hours, and the feed supply was restored 4 hours after administration.
For the intravenous injection administration group, the dose was 2 mg/kg, and 0.2 mL of blood samples was collected from the jugular vein 5 min, 15 min, 30 min, 1 h, 3 h, 5 h, and 8 h after dosage. For the orally intragastric administration group, the dose was 10 mg/kg, and 0.2 mL of blood samples was collected from the jugular vein 15 min, 30 min, 1 h, 3 h, 5 h, 8 h, 12 h, and 24 h after dosage; and liver tissues were collected 1 h, 3 hand 24 h after dosage.
After the blood were sampled, the plasma was quickly separated by centrifugation at 4000 rpm (10 minutes, 4° C.). After the liver tissues were sampled, a mixture of methanol:water (1:1, v/v) three times the volume of the liver tissues was added to prepare a homogenate. 50 μL of plasma or homogenate sample was drawn, and 200 μL of an internal standard (30 ng/mL terfenadine, and acetonitrile) was added for precipitation. Centrifuging was carried out at 4° C. and 15,400 g for 10 minutes, and a supernatant was taken for analysis.
The concentration of a target compound was detected by LC-MS/MS. According to the plasma concentration-time curve, pharmacokinetic parameters were calculated by using a non-compartmental model (NCA) of software WinNonlin 7.0. […] Table 4. Pharmacokinetic results

ACC2 [2] = molecular target: ACC2 (Homo sapiens (Human), UniProt O00763); test: In vitro ACC inhibition assay (ADP-Glo), ACC2; format: biochemical; details: for IC50: 0.5 nM ACC, 10 μM ATP, 5 μM acetyl-CoA, read-out: Enzymatic activity IC50 ACC2
Experimental: (§1) An exemplary procedure for the in vitro ACC inhibition assay, which can be used to determine the inhibitory action of the compounds of the invention toward either ACC1 or ACC2, is as follows. The ADP-Glo™ kinase assay kit from Promega was used. The ADP-Glo™ kinase assay is a luminescent ADP detection assay to measure enzymatic activity by quantifying the amount of ADP produced during an enzyme reaction. The assay was performed in two steps; first, after the enzyme reaction, an equal volume of ADP-Glo™ reagent was added to terminate the reaction and deplete the remaining ATP. Then, the kinase detection reagent was added to simultaneously convert ADP to ATP and allow the newly synthesized ATP to be measured using a luciferase/luciferin reaction. Luminescence can be correlated to ADP concentrations by using an ATP-to-ADP conversion curve. The detailed procedure was as follows. 4.5 μL of a working solution was added to a 384-well plate. The compound was diluted at 1:3 in succession in DMSO. 0.5 μL of diluted compound solution was added to a 384-well white Optiplate assay plate. The plates were incubated at room temperature for 15 minutes. 5 μL of substrate working solution was added to each well to initiate the reaction. A final ACC reaction solution consisted of: 0.5 nM ACC, 10 μM ATP, 5 μM acetyl-CoA, and 15 mM NaHCO3; and the final concentrations of the compound were measured as follows: 1 μM, 0.333 μM, 0.111 μM, 0.037 μM, 0.0123 μM, 0.00411 μM, 0.00137 μM, 0.000457 μM, 0.000152 μM, and 0.000051 μM. The plates were incubated at room temperature for 30 minutes. 10 μL of ADP-Glo™ reagent was added, and the plates were incubated at room temperature for 40 minutes. 20 μL of kinase detection reagent was added. The plates were incubated at room temperature for 40 minutes, then read on a Perkin Elmer EnVision 2104 plate reader for luminescence in relative light unit (RLU).
(§2) Data for each concentration, as well as the positive and negative controls were averaged, and the standard deviation was calculated. Percent inhibition was calculated by the formula: 100×(average negative control−compound)/(average negative control−average positive control). The IC50 for each compound was calculated by fitting the data with a non-linear regression equation: Y=Bottom+(Top−Bottom)/(1+10^((Log IC50−X)×HillSlope)), where X is the log of compound concentration and Y is the percent inhibition.

ACC1 [3] = molecular target: ACC1 (Homo sapiens (Human), UniProt Q13085); test: In vitro ACC inhibition assay (ADP-Glo), ACC1; format: biochemical; details: for IC50: 0.5 nM ACC, 10 μM ATP, 5 μM acetyl-CoA, read-out: Enzymatic activity IC50 ACC1
Experimental: as §1, §2

ACC2 [4] = details: ACC isolated from rat, mouse, monkey and human; cited from earlier work
ACC1 [5] = details: ACC isolated from rat, mouse, monkey and human; cited from earlier work
[6] = iv 2 mg/kg, read-out: AUC0-∞ (iv)
[7] = iv 2 mg/kg, read-out: Cmax (iv)
[8] = iv 2 mg/kg, read-out: Tmax (iv)
[9] = iv 2 mg/kg, read-out: t1/2 (iv) (converted)
[10] = po 10 mg/kg, read-out: AUC0-∞ (po)
[11] = po 10 mg/kg, read-out: Cmax (po)
[12] = po 10 mg/kg, read-out: Tmax (po)
[13] = po 10 mg/kg, read-out: t1/2 (po) (converted)

ACC2 (Homo sapiens (Human), UniProt O00763), sequence (O00763 whole entry, species assumed): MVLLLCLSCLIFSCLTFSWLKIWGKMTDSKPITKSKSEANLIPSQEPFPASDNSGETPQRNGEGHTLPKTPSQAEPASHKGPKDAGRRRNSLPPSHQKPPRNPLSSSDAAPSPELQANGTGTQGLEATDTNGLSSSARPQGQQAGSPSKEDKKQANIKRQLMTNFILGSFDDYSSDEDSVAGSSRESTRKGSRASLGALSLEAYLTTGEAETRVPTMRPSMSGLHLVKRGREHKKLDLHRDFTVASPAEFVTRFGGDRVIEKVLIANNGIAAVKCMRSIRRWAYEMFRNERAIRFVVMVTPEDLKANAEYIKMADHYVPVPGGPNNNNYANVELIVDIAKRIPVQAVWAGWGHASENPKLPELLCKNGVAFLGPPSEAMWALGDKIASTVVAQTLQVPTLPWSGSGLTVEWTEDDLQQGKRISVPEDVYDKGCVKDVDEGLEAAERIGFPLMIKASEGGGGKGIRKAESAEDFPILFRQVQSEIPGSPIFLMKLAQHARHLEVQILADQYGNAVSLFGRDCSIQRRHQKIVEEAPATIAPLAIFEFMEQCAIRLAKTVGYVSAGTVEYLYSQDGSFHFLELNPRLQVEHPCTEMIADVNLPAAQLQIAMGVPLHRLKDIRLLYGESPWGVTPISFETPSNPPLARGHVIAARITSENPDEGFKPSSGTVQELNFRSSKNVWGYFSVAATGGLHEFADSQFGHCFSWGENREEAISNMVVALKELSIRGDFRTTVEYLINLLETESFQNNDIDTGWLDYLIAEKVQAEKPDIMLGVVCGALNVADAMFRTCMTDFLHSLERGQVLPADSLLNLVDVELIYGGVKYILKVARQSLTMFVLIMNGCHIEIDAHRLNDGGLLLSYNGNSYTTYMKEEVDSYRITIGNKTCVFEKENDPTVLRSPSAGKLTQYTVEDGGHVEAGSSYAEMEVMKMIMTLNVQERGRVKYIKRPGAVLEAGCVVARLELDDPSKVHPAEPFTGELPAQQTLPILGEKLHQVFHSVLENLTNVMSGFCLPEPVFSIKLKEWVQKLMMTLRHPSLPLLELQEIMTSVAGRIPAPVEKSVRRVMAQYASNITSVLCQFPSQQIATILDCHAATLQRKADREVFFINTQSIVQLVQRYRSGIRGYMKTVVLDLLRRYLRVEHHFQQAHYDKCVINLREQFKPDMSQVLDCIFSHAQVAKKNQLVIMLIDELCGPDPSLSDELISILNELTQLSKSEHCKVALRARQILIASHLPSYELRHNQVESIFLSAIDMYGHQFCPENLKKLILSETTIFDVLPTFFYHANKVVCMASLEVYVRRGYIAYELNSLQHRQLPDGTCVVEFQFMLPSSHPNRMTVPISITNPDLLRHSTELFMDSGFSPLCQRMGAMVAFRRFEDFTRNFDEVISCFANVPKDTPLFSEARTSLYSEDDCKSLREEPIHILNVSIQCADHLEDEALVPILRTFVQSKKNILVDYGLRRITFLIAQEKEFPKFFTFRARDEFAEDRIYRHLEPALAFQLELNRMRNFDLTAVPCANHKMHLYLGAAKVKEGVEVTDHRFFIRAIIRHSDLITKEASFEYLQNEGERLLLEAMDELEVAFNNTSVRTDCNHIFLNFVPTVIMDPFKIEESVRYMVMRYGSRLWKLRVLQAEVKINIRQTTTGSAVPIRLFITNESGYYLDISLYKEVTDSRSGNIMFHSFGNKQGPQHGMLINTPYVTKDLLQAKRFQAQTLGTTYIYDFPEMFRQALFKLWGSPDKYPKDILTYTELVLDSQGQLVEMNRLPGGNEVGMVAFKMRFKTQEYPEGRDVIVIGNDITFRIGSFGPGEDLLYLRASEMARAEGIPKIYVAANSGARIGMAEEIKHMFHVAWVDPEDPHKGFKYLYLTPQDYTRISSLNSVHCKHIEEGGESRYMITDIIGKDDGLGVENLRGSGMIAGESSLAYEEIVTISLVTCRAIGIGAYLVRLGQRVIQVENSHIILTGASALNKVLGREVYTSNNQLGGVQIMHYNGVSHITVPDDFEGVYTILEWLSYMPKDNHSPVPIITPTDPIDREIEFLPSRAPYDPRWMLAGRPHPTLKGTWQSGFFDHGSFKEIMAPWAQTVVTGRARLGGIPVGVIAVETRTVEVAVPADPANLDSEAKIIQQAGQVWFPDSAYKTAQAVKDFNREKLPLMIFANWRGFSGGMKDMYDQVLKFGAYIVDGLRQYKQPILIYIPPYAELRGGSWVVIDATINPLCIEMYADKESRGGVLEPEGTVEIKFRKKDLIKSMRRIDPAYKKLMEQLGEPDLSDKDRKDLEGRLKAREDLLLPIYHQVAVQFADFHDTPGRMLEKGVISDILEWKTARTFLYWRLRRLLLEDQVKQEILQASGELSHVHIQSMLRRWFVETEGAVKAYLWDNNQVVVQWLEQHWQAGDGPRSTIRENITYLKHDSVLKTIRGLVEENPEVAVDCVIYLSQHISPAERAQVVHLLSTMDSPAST

IC50 (HepG2 cells) [nM]	Cl [1] [mL/h/kg]	Kp ([1]; po 10 mg/kg)	Vd [1] [L/kg]	AUC(0-inf) [1, 6] [ng·h/mL]	Cmax [1, 7] [ng/mL]	Tmax [1, 8] [min]	half-life [1, 9] [min]	AUC(0-inf) [1, 10] [ng·h/mL]	Cmax [1, 11] [ng/mL]	Tmax [1, 12] [min]	half-life [1, 13] [min]	bioavailability ([1]; po 10 mg/kg, iv 2 mg/kg) [%]	inhibitory properties against ACC2 (in words) (ACC2 [2])	IC50 (ACC2 [2]) [nM]	inhibitory properties against ACC1 (in words) (ACC1 [3])	IC50 (ACC1 [3]) [nM]	SMILES	inhibitory properties against HepG2 cells (in words) (HepG2 cells)	IC50 (ACC2 [4]) [nM]	IC50 (ACC1 [5]) [nM]
232																	COc1ccccc1[C@H](Cn1c(=O)n(CC2CC(C(=O)O)C2)c(=O)c2c(C)c(-c3ncco3)sc21)OC1CCOCC1 (stereo partly drawn) [c-1, (R)-3-((1-(2-(2-methoxyphenyl)-2-((tetrahydro-2H-pyran-4-yl)oxy)ethyl)-5-methyl-6-(oxazol-2-yl)-2,4-dioxa-1,4-dihydrothieno[2,3-d]pyrimidine-3(2H)-yl)methyl)cyclobutane-1-carboxylic acid]			
13.1	642	9.46 to 17.3	0.826	3120	4100	5	104	15700	7780	30	279	99.6	good inhibitory properties	9	good inhibitory properties	0.836	COc1ccccc1[C@H](Cn1c(=O)n([C@H]2C[C@H](CC(=O)O)C2)c(=O)c2c(C)c(-c3ncco3)sc21)OC1CCOCC1 [c-3-1, 2-((1R,3r)-3-(1-((R)-2-(2-methoxyphenyl)-2-((tetrahydro-2H-pyran-4-yl)oxy)ethyl)-5-methyl-6-(oxazol-2-yl)-2,4-dioxo-1,2-dihydrothieno[2,3-d]pyrimidine-3(4H)-yl)cyclobutyl)acetic acid]	good inhibitory properties		
18	1500	20.6 to 30	0.839	1390	3110	5	54	4350	3240	24	289	62.3	good inhibitory properties	8	good inhibitory properties	1.12	COc1ccccc1[C@H](Cn1c(=O)n([C@H]2C[C@@H](CC(=O)O)C2)c(=O)c2c(C)c(-c3ncco3)sc21)OC1CCOCC1 [c-3-2, 2-((1S,3s)-3-(1-((R)-2-(2-methoxyphenyl)-2-((tetrahydro-2H-pyran-4-yl)oxy)ethyl)-5-methyl-6-(oxazol-2-yl)-2,4-dioxo-1,2-dihydrothieno[2,3-d]pyrimidine-3(4H)-yl)cyclobutyl)acetic acid]	good inhibitory properties		
	735	5.5 to 41.9	0.48	2870	5630	4.98	63.6	5090	2880	24	39	35.8					COc1ccccc1[C@H](Cn1c(=O)n(C(C)(C)C(=O)O)c(=O)c2c(C)c(-c3ncco3)sc21)OC1CCOCC1 [ND630, reference compound]			
18.5													good inhibitory properties	3	good inhibitory properties	0.688	COc1ccccc1[C@H](Cn1c(=O)n(C2CC(CC(=O)O)C2)c(=O)c2c(C)c(-c3ncco3)sc21)OC1CCOCC1 (stereo partly drawn) [c-3, (R)-2-(3-(1-(2-(2-methoxyphenyl)-2-((tetrahydro-2H-pyran-4-yl)oxy)ethyl)-5-methyl-6-(oxazol-2-yl)-2,4-dioxo-1,4-dihydrothieno[2,3-d]pyrimidine-3(2H)-yl)cyclobutyl)acetic acid]	good inhibitory properties		
																	O=C(c1c2ccccc2cc2ccccc12)N1CCC(N2CCC[C@@H](C(=O)N3CCOCC3)C2)CC1 [CP-640186]		~60	~60
